Measured values reported in ChEMBL document CHEMBL1201862, “PubChem BioAssay data set” (2004).
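Protocol summary: plate cells (96-well), add compound at 5 concentrations, incubate 48 h, interpolate endpoints linearly. GI50: concentration for 50% inhibition of growth.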 Calls of active or inactive are those of the source. Cut-off read from the data, not from the text of the source: active = GI50 up to about 1.1 µM and inactive = higher.

How the values were obtained:
Experiment in all cases: growth of human tumour cells (NCI), 48 h
786-0 = test system: 786-0
A498 = test system: A498
A549 = test system: A549
ACHN = test system: ACHN
CAKI-1 = test system: CAKI-1
CCRF-CEM = test system: CCRF-CEM
COLO 205 = test system: COLO 205
DLD-1 = test system: DLD-1
DMS-114 = test system: DMS-114
DMS-273 = test system: DMS-273
EKVX = test system: EKVX
HCC 2998 = test system: HCC 2998
HCT-116 = test system: HCT-116
HCT-15 = test system: HCT-15
HL-60 = test system: HL-60
HOP-62 = test system: HOP-62
HOP-92 = test system: HOP-92
K562 = test system: K562
KM-20L2 = test system: KM-20L2
KM12 = test system: KM12
LOX IMVI = test system: LOX IMVI
LXFL 529 = test system: LXFL 529
M14 = test system: M14
M19-MEL = test system: M19-MEL
MOLT-4 = test system: MOLT-4
NCI-H460 = test system: NCI-H460
NCI-H522 = test system: NCI-H522
OVCAR-3 = test system: OVCAR-3
OVCAR-4 = test system: OVCAR-4
OVCAR-8 = test system: OVCAR-8
RPMI-8226 = test system: RPMI-8226
RXF 393 = test system: RXF 393
RXF 631 = test system: RXF 631
SF-268 = test system: SF-268
SF-295 = test system: SF-295
SK-MEL-28 = test system: SK-MEL-28
SK-MEL-2 = test system: SK-MEL-2
SK-MEL-5 = test system: SK-MEL-5
SK-OV-3 = test system: SK-OV-3
SN12C = test system: SN12C
SNB-19 = test system: SNB-19
SNB-75 = test system: SNB-75
SNB-78 = test system: SNB-78
SR = test system: SR
SW-620 = test system: SW-620
TK-10 = test system: TK-10
U-251 = test system: U-251
UACC-257 = test system: UACC-257
UACC-62 = test system: UACC-62
UO-31 = test system: UO-31
XF498 = test system: XF498
HOP-18 = test system: HOP-18
HT-29 = test system: HT-29
IGROV-1 = test system: IGROV-1
Malme-3M = test system: Malme-3M
NCI-H226 = test system: NCI-H226
NCI-H23 = test system: NCI-H23
OVCAR-5 = test system: OVCAR-5
SF-539 = test system: SF-539

In the case of `OCCN(CCO)c1cccc(N(CCO)CCO)n1`, the GI50 (786-0) is reported as > 100 µM (inactive), the GI50 (A498) is reported as > 100 µM (inactive) and the GI50 (A549) is reported as > 100 µM (inactive). The GI50 (ACHN) was > 100 µM (inactive), the GI50 (CAKI-1) was > 100 µM (inactive) and the GI50 (CCRF-CEM) was > 100 µM (inactive). The GI50 (COLO 205) was > 100 µM (inactive), the GI50 (DLD-1) was > 100 µM (inactive) and the GI50 (DMS-114) was > 100 µM (inactive). The GI50 (DMS-273) was > 100 µM (inactive), the GI50 (EKVX) was > 100 µM (inactive) and the GI50 (HCC 2998) was > 10 µM (inactive). The GI50 (HCT-116) was > 100 µM (inactive), the GI50 (HCT-15) was > 100 µM and the GI50 (HL-60) was > 100 µM (inactive). For the same molecule, the GI50 (HOP-62) was > 100 µM (inactive), the GI50 (HOP-92) was > 100 µM (inactive) and the GI50 (K562) was > 100 µM (inactive). The GI50 (KM-20L2) was > 100 µM (inactive), the GI50 (KM12) was > 100 µM (inactive) and the GI50 (LOX IMVI) was > 100 µM (inactive). The GI50 (LXFL 529) was > 100 µM (inactive), the GI50 (M14) was > 100 µM (inactive) and the GI50 (M19-MEL) was > 100 µM (inactive). The GI50 (MOLT-4) was > 100 µM (inactive), the GI50 (NCI-H460) was > 100 µM (inactive) and the GI50 (NCI-H522) was > 100 µM (inactive). For the same molecule, the GI50 (OVCAR-3) was > 100 µM (inactive), the GI50 (OVCAR-4) was > 100 µM (inactive) and the GI50 (OVCAR-8) was > 100 µM (inactive). The GI50 (RPMI-8226) was > 100 µM (inactive), the GI50 (RXF 393) was > 100 µM (inactive) and the GI50 (RXF 631) was > 100 µM (inactive). The GI50 (SF-268) was > 100 µM (inactive), the GI50 (SF-295) was > 100 µM (inactive) and the GI50 (SK-MEL-28) was > 100 µM (inactive). The GI50 (SK-MEL-2) was > 100 µM (inactive), the GI50 (SK-MEL-5) was > 100 µM (inactive) and the GI50 (SK-OV-3) was > 100 µM (inactive). The GI50 (SN12C) was > 10 µM (inactive), the GI50 (SNB-19) was > 100 µM (inactive) and the GI50 (SNB-75) was > 100 µM (inactive). For the same molecule, the GI50 (SNB-78) was > 100 µM (inactive), the GI50 (SR) was > 100 µM (inactive) and the GI50 (SW-620) was > 100 µM (inactive). For the same molecule, the GI50 (TK-10) was > 100 µM (inactive), the GI50 (U-251) was > 100 µM (inactive) and the GI50 (UACC-257) was > 100 µM (inactive). The GI50 (UACC-62) was 58.2 µM (inactive), the GI50 (UO-31) was > 100 µM (inactive) and the GI50 (XF498) was 27.7 µM (inactive).
With `COc1cc2ccc(CC(N)=O)cc2cc1OC` the GI50 (786-0) was > 100 µM (inactive), the GI50 (A549) was > 100 µM (inactive) and the GI50 (CCRF-CEM) was > 100 µM (inactive). The GI50 (COLO 205) was > 100 µM (inactive), the GI50 (DMS-114) was > 100 µM (inactive) and the GI50 (DMS-273) was > 100 µM (inactive). For the same molecule, the GI50 (EKVX) was > 100 µM (inactive), the GI50 (HCT-116) was > 100 µM (inactive) and the GI50 (HCT-15) was > 100 µM. The GI50 (HOP-18) was > 100 µM (inactive), the GI50 (HOP-62) was > 100 µM (inactive) and the GI50 (HOP-92) was > 100 µM (inactive). For the same molecule, the GI50 (HT-29) was > 100 µM (inactive), the GI50 (IGROV-1) was > 100 µM (inactive) and the GI50 (K562) was > 100 µM (inactive). For the same molecule, the GI50 (KM-20L2) was > 100 µM (inactive), the GI50 (KM12) was > 100 µM (inactive) and the GI50 (LOX IMVI) was > 100 µM (inactive). For the same molecule, the GI50 (LXFL 529) was > 100 µM (inactive), the GI50 (M14) was > 100 µM (inactive) and the GI50 (M19-MEL) was > 100 µM (inactive). The GI50 (MOLT-4) was > 100 µM (inactive), the GI50 (Malme-3M) was > 100 µM (inactive) and the GI50 (NCI-H226) was > 100 µM (inactive). For the same molecule, the GI50 (NCI-H23) was > 100 µM (inactive), the GI50 (NCI-H522) was > 100 µM (inactive) and the GI50 (OVCAR-3) was > 100 µM (inactive). For the same molecule, the GI50 (OVCAR-4) was > 100 µM (inactive), the GI50 (OVCAR-5) was > 100 µM (inactive) and the GI50 (OVCAR-8) was > 100 µM (inactive). The GI50 (RPMI-8226) was > 100 µM (inactive), the GI50 (RXF 393) was > 100 µM (inactive) and the GI50 (RXF 631) was > 100 µM (inactive). For the same molecule, the GI50 (SF-268) was > 100 µM (inactive), the GI50 (SF-295) was > 100 µM (inactive) and the GI50 (SF-539) was > 100 µM (inactive). For the same molecule, the GI50 (SK-MEL-28) was > 100 µM (inactive), the GI50 (SK-MEL-2) was > 100 µM (inactive) and the GI50 (SK-MEL-5) was > 100 µM (inactive). The GI50 (SK-OV-3) was > 100 µM (inactive), the GI50 (SN12C) was > 100 µM (inactive) and the GI50 (SNB-19) was > 100 µM (inactive). For the same molecule, the GI50 (SNB-75) was 40.3 µM (inactive), the GI50 (SNB-78) was > 100 µM (inactive) and the GI50 (SW-620) was > 100 µM (inactive). For the same molecule, the GI50 (TK-10) was > 100 µM (inactive), the GI50 (U-251) was > 100 µM (inactive) and the GI50 (UACC-257) was > 100 µM (inactive). For the same molecule, the GI50 (UACC-62) was > 100 µM (inactive), the GI50 (UO-31) was > 100 µM (inactive) and the GI50 (XF498) was > 100 µM (inactive).
